Assays:
[1] = test system: HeLa cells; experiment: Combined detection of hypoxia and redox status in live cells by fluorescent microscopy; type: cell-based, human; settings: 5 μM; all four hypoxic samples (anoxia, CoCl2, DFO, DMOG)
Method: HeLa and U-2 OS cells were cultured as described in Example 7. Stock solutions of CD-1 and CD-5 and various hypoxia inducers were prepared and stored as described in Examples 7 and 8. Additionally, 5 mM stock solutions (5000×) of 2′,7′-dichloro-fluorescein diacetate (DCFDA, an indicator of global ROS generation) and dihydroethidium (DHE, specific indicator of superoxide generation) were made in anhydrous DMF. DMSO was avoided, since this solvent is a hydroxyl radical scavenger and its presence may affect ROS/RNS production in cellular systems. The following stocks of ROS inducers were prepared in DMF: 10 mM pyocyanin (general ROS generating compound, 100×), 20 mM antimycin A (general ROS inducer, 400×), 50 mM pyrogallol (a superoxide radical generator, 1000×), 1 mM t-butyl hydroperoxide (TBHP, peroxide radical inducer, 10,000×). ROS probes and inducers were aliquoted and stored at −80° C.
The day before the experiment, the cells were seeded on 4-well microscope slides (Cel-Line™ Brand, Portsmouth, N.H.) at a density 1×10^4 cells/well (2×10^4 cells/cm^2). On the day of the experiment, the cells were preloaded with both hypoxia probe (5 μM final concentration in cell culture medium) and ROS detecting reagent with suitable spectral characteristics. Two ROS-detecting probes, DCFDA and DHE, were used in a pilot experiment in conjunction with hypoxia self-immolative probes. The hydrolyzed product of DCFDA, DCFH, is considered to be a general indicator of ROS, reacting with H2O2 (in the presence of peroxidases), ONOO^−, lipid hydroperoxides, and hydroxyl radicals. The oxidized product can be detected by strong fluorescence emission at around 525 nm when excited at around 488 nm. Because H2O2 is a secondary product of O2.^−, DCFH fluorescence has been used to implicate O2.^− production. The direct reaction of DHE with O2.^− yields a very specific fluorescent product, requiring no conversion to H2O2. The product of the DHE reaction with O2.^− fluoresces strongly at around 600 nm when excited at 500-530 nm.
Tested pairs of the probes were as follows: CD-5 with DCFDA or DHE, and CD-1 with DHE. A hypoxic state was induced in the cells as described in Example 7. Control slides were singly-stained with hypoxia or ROS-detecting probes only. Additional slides were treated with different general and specific ROS inducers and stained with ROS-detecting probes to control ROS staining. Post-treatment, the slides were washed twice with PBS, coverslipped and visualized using an Olympus BX-51 fluorescence microscope and a DAPI filter set (350 ex/470em) for CD-5, an FITC filter set (490ex/525em) for CD-1 or for total ROS detection reagent, and an orange filter set (550ex/620em) for HE.

[2] = test system: hypoxic HeLa cells; experiment: Detection of hypoxia with hypoxia markers using fluorescence microscopy; type: cell-based, human; settings: 5 μM, 3.5 h, chemical induction of hypoxia (CoCl2, DFO, DMOG) or anoxic treatment, FITC filter
Method: The human cervical adenocarcinoma epithelial cell line HeLa, U-2 OS human bone osteosarcoma cell line and hamster ovary CHO K1 cell line were obtained from ATTC. HeLa cells were routinely cultured in Eagle's Minimum Essential Medium with low glucose (ATCC), supplemented with 10% fetal bovine serum (ATCC) and 100 U/ml penicillin, 100 μg/ml streptomycin (Sigma-Aldrich, St. Louis, Mo.). U-2 OS cells were routinely cultured in McCoy's 5a Modified Medium (ATCC), supplemented with 10% fetal bovine serum heat (ATCC) and 100 U/ml penicillin+100 μg/ml streptomycin (Sigma-Aldrich). […]
The day before the experiment, the cells were seeded on 4-well microscope slides (Cel-Line™ Brand, Portsmouth, N.H.) at a density 1×10^4 cells/well (2×10^4 cells/cm^2). […] Post-treatment, the slides were washed twice with PBS, coverslipped and visualized using an Olympus BX-51 fluorescence microscope (FITC filter set, 490ex/525em).
In parallel, the hypoxia cellular state was detected using the hypoxia detecting reagent pimonidazole (Varia et al., 1998; Young, 1977). […] Slides were stained with a 1:100 dilution of FITC-MAb1 against pimonidazole (HP-1 kit from Hypoxyprobe) for 45 min at 4° C., washed twice with PBS, coverslipped and visualized using an Olympus BX-51 fluorescence microscope equipped with an FITC filter set (490ex/525em). […]

**Q.** What does the source list for `O=C(Nc1ccc2c(c1)Oc1cc(NC(=O)N3CCOCC3)ccc1C21OC(=O)c2ccccc21)OCc1ccc([N+](=O)[O-])cc1` (centres unmarked) [CD-1]?
**A.** hypoxia probe fluorescent signal in hypoxic HeLa cells, multiplexed with ROS dyes [1]: bright fluorescent signal; fluorescence signal in hypoxic HeLa cells [2]: bright fluorescence signal

Source: patent publication US8828678B2, “Self-immolative probes for enzyme activity detection” (Enzo Life Sciences, Inc., priority 2010, dated 2014)
